Test results from patent US12398102B2, “Formulation for soft anticholinergic analogs” (BODOR LABORATORIES, INC., priority 2014, dated 2025).

Assays:
[1] = tested on: Göttingen Minipigs; experiment: 14-day dermal and systemic toxicity study in Göttingen Minipigs; details: anhydrous composition, 14 days, dermal
Experimental: (§1) All groups received 2 mL of gel formulation, once a day, for 14 consecutive days, applied to approximately 10% of their body surface area on their back.
(§2) The study included daily observations of the site of application and scoring of erythema and edema (if present), daily general examinations including heart rate as well as pupil size assessments at days 1, 2, 3, 5, 7, 10 and 14. The frequent observations of heart rate and pupil size were intended to identify any potential systemic anticholinergic effect. Main organs were evaluated during necropsy and histopathology evaluation was completed for treated and untreated skin. Blood samples for chemistry and hematology analysis were collected as well as PK samples.
The estimated BBI-4000 dose applied to the skin in this study was 40 mg/kg/day for Group 3 and 20 mg/kg/day for Group 2.

[2] = Stability of approximately 2% BBI-4000 in four solvent systems (HPLC); format: physicochemical; details: for BBI-4000 Assay, Change from Baseline (40° C./75%), reduction: Day 7
Experimental: Various formulations of approximately 2% BBI-4000 were made and their stabilities assessed. The solvent systems were as follows: • (a) solvent content: 100% water; • (b) solvent content: 60% water/40% ethanol; • (c) solvent content: 30% water/70% ethanol; • (d) solvent content: 100% ethanol. Each sample was assessed at baseline; after 7 days at 25° C./60% humidity; and after 7 days at 40° C./75% humidity. The percentage change from baseline for 40° C. after 7 days was calculated in each case. HPLC analysis was conducted as described in EXAMPLE 2 below.
There is clearly a dramatic difference in the stability of the anhydrous ethanol formulation compared to the water-containing formulations.

[3] = HPLC assay and impurities of aqueous BBI-4000 gel formulations at differing pH; format: physicochemical; details: Day 7
Experimental: The standards were prepared in duplicate by weighing 2.0±0.1 mg of BBI-4000 into 1 mL volumetric flasks. Dissolved and diluted to volume with acetonitrile and mixed by inversion.
Gel samples were prepared in duplicate at a target concentration of 2 mg/ml in a 5-mL volumetric flask. Added 1.5 ml H2O and mixed to disperse the sample. Diluted to volume with acetonitrile and filtered an aliquot through a syringe filter.
The liquid chromatographic system was set-up as follows: • HPLC Column: XBridge Shield RP18, 4.6×150 mm, 3.5 μm • Column Temp.: 25±1° C. • Sample Temp.: ambient • Flow Rate: 1.5 mL/min • Injection Volume: 10 μL • UV Detection: 220 nm • Run Time: 20 minutes

[4] = tested on: subjects with axillary hyperhidrosis; experiment: Study BBI-4000-CL-101: efficacy, gravimetric sweat production and HDSS; format: in vivo, human
Experimental: Efficacy was assessed by the change in gravimetrically measured sweat production and the change in hyperhidrosis disease severity scale (HDSS) from baseline to Day 15 (end of therapy).
For the gravimetric assessment, sweat production was measured by placing filter paper (pre-weighed) on the axilla for 5 minutes while the subject was in a semi-reclining position at room temperature. The filter paper was covered with plastic during exposure to the axilla, and was then weighed following the 5-minute exposure period to calculate the amount of sweat produced.
For the HDSS, subjects rated the severity of their hyperhidrosis on a 4-point scale (1,2, 3, or 4) based on the level of interference with their daily activities.

[5] = Toxicokinetics (PK samples) in the 14-day Göttingen Minipig study; format: in vivo, Göttingen Minipigs
Experimental: as §1, §2

[6] = solvent 100% ethanol, Day 7 @ 25° C./60%

CCOC(=O)C[N@+]1(C)CCC(OC(=O)[C@](O)(c2ccccc2)C2CCCC2)C1.[Br-] (stereo partly drawn) [BBI-4000, (2R,3′R) 3-(2-cyclopentyl-2-phenyl-2-hydroxyacetoxy)-1-(ethoxycarbonylmethyl)-1-methylpyrrolidinium bromide]
Histopathology analysis of treated skin [1]: unremarkable and identical to non-treated and vehicle treated skin
Stability in words: baseline amount of BBI-4000 retained ([2]; 100% ethanol (absolute or anhydrous), 7 days at 40° C.): essentially maintained the baseline amount of BBI-4000
BBI-4000 Assay, Change from Baseline (40° C./75%), reduction ([2]; solvent 30% water, 70% ethanol): reduction 5%
BBI-4000 Main Hydrolysis Products (RRT-0.79-0.84) ([2]; solvent 30% water, 70% ethanol, Day 7 @ 25° C./60%): 0.84%
BBI-4000 Main Hydrolysis Products (RRT-0.79-0.84) ([2]; solvent 30% water, 70% ethanol, Day 7 @ 40° C./75%): 3.50%
BBI-4000 Main Hydrolysis Products (RRT-0.79-0.84) ([2]; solvent 30% water, 70% ethanol, baseline): 0
BBI-4000 Assay, Change from Baseline (40° C./75%), reduction ([2]; solvent 60% water, 40% ethanol): reduction 5%
BBI-4000 Main Hydrolysis Products (RRT-0.79-0.84) ([2]; solvent 60% water, 40% ethanol, Day 7 @ 25° C./60%): 0.83%
BBI-4000 Main Hydrolysis Products (RRT-0.79-0.84) ([2]; solvent 60% water, 40% ethanol, Day 7 @ 40° C./75%): 3.40%
BBI-4000 Main Hydrolysis Products (RRT-0.79-0.84) ([2]; solvent 60% water, 40% ethanol, baseline): 0
BBI-4000 Assay, Change from Baseline (40° C./75%), reduction ([2]; solvent 100% ethanol): reduction <1%
BBI-4000 Assay [2, 6]: 2%
BBI-4000 Main Hydrolysis Products (RRT-0.79-0.84) [2, 6]: 0
BBI-4000 Main Hydrolysis Products (RRT-0.79-0.84) ([2]; solvent 100% ethanol, Day 7 @ 40° C./75%): 0
BBI-4000 Main Hydrolysis Products (RRT-0.79-0.84) ([2]; solvent 100% ethanol, baseline): 0
BBI-4000 Assay, Change from Baseline (40° C./75%), reduction ([2]; solvent 100% water): reduction 9.5%
BBI-4000 Main Hydrolysis Products (RRT-0.79-0.84) ([2]; solvent 100% water, Day 7 @ 25° C./60%): 1.90%
BBI-4000 Assay ([2]; solvent 100% water, Day 7 @ 40° C./75%): 1.80%
BBI-4000 Main Hydrolysis Products (RRT-0.79-0.84) ([2]; solvent 100% water, baseline): 0
Stability of the aqueous formulation system, in words [3]: lack of stability of this formulation system
Comparison of 10% gel and 5% gel (sweat reduction and HDSS improvement) ([4]; Cohort 2, small sample size, no definitive conclusion): BBI-4000 10% gel performed better than BBI-4000 5% gel
Subjects reporting a >2-point improvement in HDSS ([4]; Day 15, 5% and 10% gel aggregated (8 of 12)): 67%
Proportion of subjects with at least a 50% reduction in sweat production ([4]; Day 15, 5% and 10% gel aggregated (9 of 12)): 75%
Time at which the highest concentration was observed ([5]; after Day-14 dosing, minipig receiving 20% BBI-4000): 2 h
Systemic exposure (PK analysis) ([5]; dermal 10% and 20% gel, 14 days): variable, dose related systemic exposure
